# Read-outs that look alike come from different tables or passages of the source. Numbered stars: 1 amine (or outer) side, 2 acyl side, 3 side chain; on linkers, the order of the positions; unused ones are H or OH. Square brackets hold non-standard residues; d marks the D form. Peptide text beside a SMILES is read from it. * marks the point of attachment. X13 = CCCCCCCCCC(=O)Nc1ccc2c(c1)CN([*:1])[C@H](C(=O)[*:2])C2; Phenylacetic(2-CH2NH2) = O=C(Cc1ccccc1CN[*:1])[*:2]; 2(aminomethyl)benzoyl = O=C(c1ccccc1CN[*:1])[*:2]; X6 = CCCCCCCCCC(=O)NCCCNC(=O)c1ccc(C(=O)*)c(CN)c1; X2 = O=C([C@@H]1Cc2ccccc2N1[*:1])[*:2]; X9 = NCCS(=O)(=O)c1ccc(C(=O)*)c(CN)c1; Tiq1c(1S) = O=C(O)[C@H]1NCCc2ccccc21; X11 = NCCCNC(=O)c1ccc(C(=O)*)c(CN)c1; Tic = O=C(O)[C@@H]1Cc2ccccc2CN1; dTic = O=C(O)[C@H]1Cc2ccccc2CN1; X12 = Cc1cc(N)cc(C(=O)*)c1CN; X5 = Cc1cc(CN)cc(CN)c1C(=O)*; Decanoyl = CCCCCCCCCC(=O)*; X1 = O=C(O)Cc1ccccc1C(=O)*; X4 = NCc1ncccc1C(=O)*; X7 = NCc1cccnc1C(=O)*
# Assay: Determination of half life in PBS: cleavage of promoieties from capped model peptides
# Format: physicochemical
# Experimental: Determination Of half Life in PBS
# Polypeptides GIVEQAA-NH2 (SEQ ID NO: 57) and […] (SEQ ID NO: 58), two mimics of the N-terminus section of insulin A chain, were used as model peptides to determine the half lives of various promoieties linked to the N-terminus of the peptides through an amide bond. The model peptides were prepared with Fmoc chemistry, cleaved by TFA and purified by preparative RP-HPLC.
# The promoiety capped model peptide was dissolved at 1 mg/mL concentration in PBS and the solution was incubated at 37° C. in a water bath. Samples were collected for analysis at different time points (e.g., 8 h, 16 h, 24 h, 48 h, 72 h, 96 h, 120 h). […] The promoiety cleavage was quenched by lowering pH to 2 by addition of 0.1% TFA solution. RP-HPLC was used to monitor the cleavage reactions and the cleavage rates were quantitatively studied by measuring the peak areas of the promoiety capped and released model peptides. Agilent 6110 Quadrupole LC-MS was employed to verify the change of mass in the course of reaction.
# The RP-HPLC analysis was performed using a Shimadzu LC-2010A HT system and a 150 mm×4.6 mm Zorbax 300SB-C18 column. The flow rate was 1 ml/min. Solvent A contained 0.1% TFA/5% CH3CN in deionized water, and solvent B contained 0.1% TFA in 100% CH3CN. A linear gradient was employed (e.g., 10-70% B in 10 minutes).
# The rate of cleavage was determined for the respective promoiety capped model peptides. The concentrations of the promoiety capped model peptides and the released model peptides were determined by their respective peak areas. The first order dissociation rate constant of a promoiety capped model peptide was determined by plotting the logarithm of [starting promoiety capped model peptide]/[remaining promoiety capped model peptide] at various time intervals. The half life for cleavage of a promoiety capped model peptide was calculated by using the equation and the slope derived from this plot.
# The cleavage half lives of various promoieties linked to the model peptides were determined using the procedures described above.
# [1] = PBS, 37° C., 1 mg/mL, RP-HPLC, read-out: t 1/2 (h), cleavage of promoiety linked to N terminus of model peptide X-[…] (converted)
# [2] = PBS, 37° C., 1 mg/mL, RP-HPLC, read-out: t 1/2 (h), cleavage of promoiety linked to N terminus of model peptide X-GIVEQAA (converted)
Compound,half-life at 1 mg/mL [1] [h],also measured
N[C@@H](CCCCNC(=O)OCC1c2ccccc2-c2ccccc21)c1nncn1[C@@H](CO)C(=O)O,79.7,
N[C@@H](CO)c1nncn1[C@@H](CCCCNC(=O)OCC1c2ccccc2-c2ccccc21)C(=O)O,193,
Cc1cc(C(=O)O)cc(CN)c1C(=O)NCCc1ccc(N)cc1,,"half-life at 1 mg/mL (compound drawn, stated after the PBS tables, read-out: Half life for cleavage (converted)): 779 h"
CCCCCCCCCC(=O)Nc1ccc2c(c1)CN(C(=O)[C@H](C)N)[C@H](C(=O)NCC(=O)N[C@H](C(=O)N[C@H](C(=O)N[C@@H](CCC(=O)O)C(=O)N[C@@H](CCC(N)=O)C(=O)N[C@@H](C)C(=O)N[C@@H](C)C(=O)O)C(C)C)[C@@H](C)CC)C2 (H-A[X13]GIVEQAA-OH),,half-life at 1 mg/mL [2]: 38.9 h
CC[C@H](C)[C@H](NC(=O)CNC(=O)c1cccnc1CN)C(=O)N[C@H](C(=O)N[C@@H](CCC(=O)O)C(=O)N[C@@H](CCC(N)=O)C(=O)N[C@@H](C)C(=O)N[C@@H](C)C(=O)N[C@@H](Cc1ccc(O)cc1)C(=O)O)C(C)C (X4-GIVEQAAY-OH; C-terminus assumed),458,
CC[C@H](C)[C@H](NC(=O)CNC(=O)c1c(C)cc(CN)cc1CN)C(=O)N[C@H](C(=O)N[C@@H](CCC(=O)O)C(=O)N[C@@H](CCC(N)=O)C(=O)N[C@@H](C)C(=O)N[C@@H](C)C(=O)O)C(C)C (X5-GIVEQAA-OH; N-terminus and C-terminus assumed),,half-life at 1 mg/mL [2]: 300 h
CCCCCCCCCC(=O)NCCCNC(=O)c1ccc(C(=O)NCC(=O)N[C@H](C(=O)N[C@H](C(=O)N[C@@H](CCC(=O)O)C(=O)N[C@@H](CCC(N)=O)C(=O)N[C@@H](C)C(=O)N[C@@H](C)C(=O)N[C@@H](Cc2ccc(O)cc2)C(=O)O)C(C)C)[C@@H](C)CC)c(CN)c1 (X6-GIVEQAAY-OH),181,
CC[C@H](C)[C@H](NC(=O)CNC(=O)c1ncccc1CN)C(=O)N[C@H](C(=O)N[C@@H](CCC(=O)O)C(=O)N[C@@H](CCC(N)=O)C(=O)N[C@@H](C)C(=O)N[C@@H](C)C(=O)N[C@@H](Cc1ccc(O)cc1)C(=O)O)C(C)C (X7-GIVEQAAY-OH; C-terminus assumed),597,
CC[C@H](C)[C@H](NC(=O)CNC(=O)c1ccc(S(=O)(=O)CCN)cc1CN)C(=O)N[C@H](C(=O)N[C@@H](CCC(=O)O)C(=O)N[C@@H](CCC(N)=O)C(=O)N[C@@H](C)C(=O)N[C@@H](C)C(=O)O)C(C)C (X9-GIVEQAA-OH),,half-life at 1 mg/mL [2]: 28.1 h
CC[C@H](C)[C@H](NC(=O)CNC(=O)c1ccc(C(=O)NCCCN)cc1CN)C(=O)N[C@H](C(=O)N[C@@H](CCC(=O)O)C(=O)N[C@@H](CCC(N)=O)C(=O)N[C@@H](C)C(=O)N[C@@H](C)C(=O)N[C@@H](Cc1ccc(O)cc1)C(=O)O)C(C)C (X11-GIVEQAAY-OH),112,
CC[C@H](C)[C@H](NC(=O)CNC(=O)c1cc(N)cc(C)c1CN)C(=O)N[C@H](C(=O)N[C@@H](CCC(=O)O)C(=O)N[C@@H](CCC(N)=O)C(=O)N[C@@H](C)C(=O)N[C@@H](C)C(=O)O)C(C)C (X12-GIVEQAA-OH; N-terminus and C-terminus assumed),,half-life at 1 mg/mL [2]: 85 h
CC[C@H](C)[C@H](NC(=O)CNC(=O)c1ccccc1CN)C(=O)N[C@H](C(=O)N[C@@H](CCC(=O)O)C(=O)N[C@@H](CCC(N)=O)C(=O)N[C@@H](C)C(=O)N[C@@H](C)C(=O)N[C@@H](Cc1ccc(O)cc1)C(=O)O)C(C)C ({2(aminomethyl)benzoyl}-GIVEQAAY-OH; C-terminus assumed),1030,
CC[C@H](C)[C@H](NC(=O)CNC(=O)Cc1ccccc1CN)C(=O)N[C@H](C(=O)N[C@@H](CCC(=O)O)C(=O)N[C@@H](CCC(N)=O)C(=O)N[C@@H](C)C(=O)N[C@@H](C)C(=O)N[C@@H](Cc1ccc(O)cc1)C(=O)O)C(C)C ({Phenylacetic(2-CH2NH2)}-GIVEQAAY-OH; C-terminus assumed),482,
CC[C@H](C)[C@H](NC(=O)CNC(=O)c1ccccc1CC(=O)O)C(=O)N[C@H](C(=O)N[C@@H](CCC(=O)O)C(=O)N[C@@H](CCC(N)=O)C(=O)N[C@@H](C)C(=O)N[C@@H](C)C(=O)N[C@@H](Cc1ccc(O)cc1)C(=O)O)C(C)C [drawing 171] (X1-GIVEQAAY-OH; C-terminus assumed),,"half-life at 1 mg/mL (PBS (phosphate-buffered saline), pH 4, read-out: t 1/2 (h), cleavage of promoiety linked to N terminus of model peptide X-[…] (converted)): 6.2 h"
SEQ ID NO: 60 (GIVEQAAY; N-term may be promoiety modified),,"t 1/2 (h), cleavage of promoiety linked to N terminus of model peptide X-GIVEQAAY (PBS, 37° C., 1 mg/mL, RP-HPLC): 72.6 h"

# Continued, in another order:
half-life at 1 mg/mL [1] [h],Compound,also measured
262,CCCCCCCCCC(=O)NCCCC[C@H](N)C(=O)N1CCc2ccccc2[C@H]1C(=O)NCC(=O)N[C@H](C(=O)N[C@H](C(=O)N[C@@H](CCC(=O)O)C(=O)N[C@@H](CCC(N)=O)C(=O)N[C@@H](C)C(=O)N[C@@H](C)C(=O)N[C@@H](Cc1ccc(O)cc1)C(=O)O)C(C)C)[C@@H](C)CC (H-K(Decanoyl)[Tiq1c(1S)]GIVEQAAY-OH),
3.4,CC[C@H](C)[C@H](NC(=O)CNC(=O)[C@@H]1Cc2ccccc2N1C(=O)[C@H](C)N)C(=O)N[C@H](C(=O)N[C@@H](CCC(=O)O)C(=O)N[C@@H](CCC(N)=O)C(=O)N[C@@H](C)C(=O)N[C@@H](C)C(=O)N[C@@H](Cc1ccc(O)cc1)C(=O)O)C(C)C [NH2-Ala-Indo2CA] (H-A[X2]GIVEQAAY-OH; C-terminus assumed),
58.9,CC[C@H](C)[C@H](NC(=O)CNC(=O)[C@@H]1Cc2ccccc2CN1C(=O)[C@H](C)N)C(=O)N[C@H](C(=O)N[C@@H](CCC(=O)O)C(=O)N[C@@H](CCC(N)=O)C(=O)N[C@@H](C)C(=O)N[C@@H](C)C(=O)N[C@@H](Cc1ccc(O)cc1)C(=O)O)C(C)C [NH2-Ala-Tic] (H-A[Tic]GIVEQAAY-OH; C-terminus assumed),
6,CCCCCCCCCC(=O)NCCCC[C@H](N)C(=O)N1c2ccccc2C[C@H]1C(=O)NCC(=O)N[C@H](C(=O)N[C@H](C(=O)N[C@@H](CCC(=O)O)C(=O)N[C@@H](CCC(N)=O)C(=O)N[C@@H](C)C(=O)N[C@@H](C)C(=O)N[C@@H](Cc1ccc(O)cc1)C(=O)O)C(C)C)[C@@H](C)CC [NH2-K(C10)-Indo2CA] (H-K(Decanoyl)[X2]GIVEQAAY-OH; C-terminus assumed),
46.9,CCCCCCCCCC(=O)NCCCC[C@H](N)C(=O)N1Cc2ccccc2C[C@H]1C(=O)NCC(=O)N[C@H](C(=O)N[C@H](C(=O)N[C@@H](CCC(=O)O)C(=O)N[C@@H](CCC(N)=O)C(=O)N[C@@H](C)C(=O)N[C@@H](C)C(=O)N[C@@H](Cc1ccc(O)cc1)C(=O)O)C(C)C)[C@@H](C)CC [NH2-K(C10)-Tic] (H-K(Decanoyl)[Tic]GIVEQAAY-OH; C-terminus assumed),
9.7,CC[C@H](C)[C@H](NC(=O)CNC(=O)[C@@H]1Cc2ccccc2N1C(=O)[C@@H](N)Cc1ccccc1)C(=O)N[C@H](C(=O)N[C@@H](CCC(=O)O)C(=O)N[C@@H](CCC(N)=O)C(=O)N[C@@H](C)C(=O)N[C@@H](C)C(=O)N[C@@H](Cc1ccc(O)cc1)C(=O)O)C(C)C [NH2-Phe-Indo2CA] (H-F[X2]GIVEQAAY-OH; C-terminus assumed),
13,CC[C@H](C)[C@H](NC(=O)CNC(=O)[C@@H]1Cc2ccccc2N1C(=O)[C@@H](N)C(C)C)C(=O)N[C@H](C(=O)N[C@@H](CCC(=O)O)C(=O)N[C@@H](CCC(N)=O)C(=O)N[C@@H](C)C(=O)N[C@@H](C)C(=O)N[C@@H](Cc1ccc(O)cc1)C(=O)O)C(C)C [NH2-Val-Indo2CA] (H-V[X2]GIVEQAAY-OH; C-terminus assumed),
50.6,CCCCCCCCCC(=O)NCCCC[C@@H](N)C(=O)N1Cc2ccccc2C[C@@H]1C(=O)NCC(=O)N[C@H](C(=O)N[C@H](C(=O)N[C@@H](CCC(=O)O)C(=O)N[C@@H](CCC(N)=O)C(=O)N[C@@H](C)C(=O)N[C@@H](C)C(=O)N[C@@H](Cc1ccc(O)cc1)C(=O)O)C(C)C)[C@@H](C)CC [NH2-dK(C10)-dTic] (H-[dK](Decanoyl)[dTic]GIVEQAAY-OH; C-terminus assumed),
183,CC[C@H](C)[C@H](NC(=O)CNC(=O)c1ccccc1CC(=O)O)C(=O)N[C@H](C(=O)N[C@@H](CCC(=O)O)C(=O)N[C@@H](CCC(N)=O)C(=O)N[C@@H](C)C(=O)N[C@@H](C)C(=O)N[C@@H](Cc1ccc(O)cc1)C(=O)O)C(C)C [drawing 173] (X1-GIVEQAAY-OH; C-terminus assumed),

# Reference: patent US20200291086A1, “BIOREVERSABLE PROMOIETIES FOR NITROGEN-CONTAINING AND HYDROXYL-CONTAINING DRUGS” (priority 2013, published 2020)
